Read-outs that look alike come from different tables or passages of the source.
Assays:
Type in all cases: biochemical
DYRK4 = biological target: T1, DYRK4 (Homo sapiens, UniProt Q9NR20); test: Radiometric protein kinase assay (33PanQinase Activity Assay), DYRK4; settings: read-out: IC50 on DYRK4 (most potent DYRK4 inhibitors)
T1 construct: GST-fusion or His-tag (not specified per kinase); purchased ProQinase GmbH; host or cells: Sf9 insect cells or E. coli (not specified per kinase)
T1 sequence (Q9NR20 1-520): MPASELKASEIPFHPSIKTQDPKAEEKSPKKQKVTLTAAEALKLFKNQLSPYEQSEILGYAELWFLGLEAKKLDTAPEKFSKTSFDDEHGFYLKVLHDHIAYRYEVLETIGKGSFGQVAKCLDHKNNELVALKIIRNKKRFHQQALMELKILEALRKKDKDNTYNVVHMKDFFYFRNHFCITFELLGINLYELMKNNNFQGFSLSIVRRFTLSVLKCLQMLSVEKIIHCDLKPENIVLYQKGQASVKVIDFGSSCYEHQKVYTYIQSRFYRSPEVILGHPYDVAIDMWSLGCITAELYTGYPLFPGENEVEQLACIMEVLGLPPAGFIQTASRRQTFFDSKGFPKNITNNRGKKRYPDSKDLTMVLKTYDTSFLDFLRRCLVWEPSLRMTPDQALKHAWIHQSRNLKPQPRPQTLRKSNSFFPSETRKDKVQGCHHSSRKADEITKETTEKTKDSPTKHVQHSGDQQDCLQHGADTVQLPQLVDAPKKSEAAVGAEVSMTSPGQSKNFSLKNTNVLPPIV
Description: (§1) Assays were performed by ProQinase GmbH (Engesserstr. 4, D-79108 Freiburg, Germany. www.proqinase.com). The IC50 profile of all compounds was determined using 12 protein kinases (CDK2/cyclin E, CK1ε, CLK1, 2, 3, 4, DYRK1A, 1B, 2, 3, 4, GSK3β).
(§2) The compounds were provided as […] in 100% DMSO. Prior to testing, the 1 μM stock solutions were subjected to a serial, semi-logarithmic dilution using 100% DMSO as a solvent. […] In the process, 90 μl H2O were added to each well of each compound dilution plate. To minimize potential precipitation, the H2O was added to each plate only a few minutes before the transfer of the compound solutions into the assay plates. The plate was shaken thoroughly, resulting in a compound dilution plate/10% DMSO.
For the assays (see below), 5 μL solution from each well of the compound dilution plates/10% DMSO were transferred into the assay plates. The final volume of the assay was 50 μL. All compounds were tested at 10 final assay concentrations in the range from 10 μM to 30 nM. The final DMSO concentration in the reaction cocktails was 1% in all cases. […]
The reaction cocktails were incubated at 30° C. for 60 minutes. […] Incorporation of ^33Pi was determined with a microplate scintillation counter (Microbeta, Wallac). The IC50 values for all compounds were calculated from the dose response curves […]

DYRK1A = biological target: T2, DYRK1A (Homo sapiens, UniProt Q13627); test: Radiometric protein kinase assay (33PanQinase Activity Assay), DYRK1A
T2 construct: GST-fusion or His-tag (not specified per kinase); purchased ProQinase GmbH; host or cells: Sf9 insect cells or E. coli (not specified per kinase)
Outline: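 Recombinant human kinase, expressed in Sf9 or E. coli, in a radiometric [γ-33P]-ATP assay at 30 °C for 60 min. Compounds tested at 10 concentrations from 10 μM to 30 nM, 1% DMSO final. 33Pi incorporation measured by scintillation counting; IC50 from dose-response curves.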

CLK4 = biological target: T3, CLK4 (Homo sapiens, UniProt Q9HAZ1); test: Radiometric protein kinase assay (33PanQinase Activity Assay), CLK4; settings: read-out: IC50 on CLK4 (most potent CLK4 inhibitors)
T3 construct: GST-fusion or His-tag (not specified per kinase); purchased ProQinase GmbH; host or cells: Sf9 insect cells or E. coli (not specified per kinase)
Description: as §1, §2
(§3) For the assays (see below), 5 μL solution from each well of the compound dilution plates/10% DMSO were transferred into the assay plates. The final volume of the assay was 50 μL. All compounds were tested at 10 final assay concentrations in the range from 10 μM to 30 nM. The final DMSO concentration in the reaction cocktails was 1% in all cases.
(§4) All protein kinases provided by ProQinase were expressed in Sf9 insect cells or in E. coli as recombinant GST-fusion proteins or His-tagged proteins, either as full-length or enzymatically active fragments. All kinases were produced from human cDNAs and purified by either GSH-affinity chromatography or immobilized metal. Affinity tags were removed from a number of kinases during purification. The purity of the protein kinases was examined by SDS-PAGE/Coomassie staining, the identity was checked by mass spectroscopy.
(§5) A radiometric protein kinase assay (33PanQinase® Activity Assay) was used for measuring the kinase activity of the 12 protein kinases. All kinase assays were performed in 96-well FlashPlates™ from PerkinElmer (Boston, MA, USA) in a 50 μL reaction volume. The reaction cocktail was pipetted in four steps in the following order: • 25 μL of assay buffer (standard buffer/[γ-^33P]-ATP), • 10 μL of ATP solution (in H2O), • 5 μL of test compound (in 10% DMSO), • 10 μL of enzyme/substrate mixture.
(§6) The reaction cocktails were incubated at 30° C. for 60 minutes. The reaction was stopped with 50 μL of 2% (v/v) H3PO4, plates were aspirated and washed two times with 200 μL 0.9% (w/v) NaCl. Incorporation of ^33Pi was determined with a microplate scintillation counter (Microbeta, Wallac). The IC50 values for all compounds were calculated from the dose response curves
(§7) As a parameter for assay quality, the Z′-factor (Zhang et al., J. Biomol. Screen. 2: 67-73, 1999) for the low and high controls of each assay plate (n=8) was used. ProQinase's criterion for repetition of an assay plate is a Z′-factor below 0.4 (Iversen et al., J. Biomol. Screen. 3: 247-252, 2006).

DYRK2 = biological target: T4, DYRK2 (Homo sapiens, UniProt Q92630); test: Radiometric protein kinase assay (33PanQinase Activity Assay), DYRK2; settings: read-out: IC50 on DYRK2 (most potent DYRK2 inhibitors)
T4 construct: GST-fusion or His-tag (not specified per kinase); purchased ProQinase GmbH; host or cells: Sf9 insect cells or E. coli (not specified per kinase)
T4 sequence (Q92630 1-601): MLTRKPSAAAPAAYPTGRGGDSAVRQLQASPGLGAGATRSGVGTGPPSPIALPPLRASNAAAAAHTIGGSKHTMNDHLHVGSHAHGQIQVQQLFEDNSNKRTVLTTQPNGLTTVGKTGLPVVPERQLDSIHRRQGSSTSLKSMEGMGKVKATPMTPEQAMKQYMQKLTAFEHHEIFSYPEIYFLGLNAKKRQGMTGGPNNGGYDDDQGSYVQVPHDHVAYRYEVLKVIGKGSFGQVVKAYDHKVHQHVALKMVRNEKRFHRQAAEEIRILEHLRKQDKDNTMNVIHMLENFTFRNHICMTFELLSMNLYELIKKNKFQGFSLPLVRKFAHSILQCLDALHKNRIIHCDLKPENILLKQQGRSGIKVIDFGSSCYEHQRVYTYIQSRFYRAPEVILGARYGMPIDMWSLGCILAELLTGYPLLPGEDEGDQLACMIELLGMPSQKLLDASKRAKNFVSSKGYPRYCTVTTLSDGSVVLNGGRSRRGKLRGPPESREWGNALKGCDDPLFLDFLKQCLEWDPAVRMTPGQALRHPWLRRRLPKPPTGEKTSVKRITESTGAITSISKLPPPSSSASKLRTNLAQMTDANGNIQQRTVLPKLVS
Description: as §1, §2, §3, §4, §5, §6, §7

CLK1 = biological target: T5, CLK1 (Homo sapiens, UniProt P49759); test: Radiometric protein kinase assay (33PanQinase Activity Assay), CLK1; settings: read-out: Potency Class CLK1
T5 construct: GST-fusion or His-tag (not specified per kinase); purchased ProQinase GmbH; host or cells: Sf9 insect cells or E. coli (not specified per kinase)
Outline: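 Recombinant human kinases (GST- or His-tagged, full-length or active fragments, from Sf9 or E. coli) were run in the radiometric 33PanQinase assay with [γ-33P]-ATP. Compounds were tested at 10 concentrations from 10 μM to 30 nM in 1% DMSO, incubated 60 min at 30 °C, and IC50 derived from dose-response curves.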

T5 sequence (P49759 whole entry, the tested form may be a part): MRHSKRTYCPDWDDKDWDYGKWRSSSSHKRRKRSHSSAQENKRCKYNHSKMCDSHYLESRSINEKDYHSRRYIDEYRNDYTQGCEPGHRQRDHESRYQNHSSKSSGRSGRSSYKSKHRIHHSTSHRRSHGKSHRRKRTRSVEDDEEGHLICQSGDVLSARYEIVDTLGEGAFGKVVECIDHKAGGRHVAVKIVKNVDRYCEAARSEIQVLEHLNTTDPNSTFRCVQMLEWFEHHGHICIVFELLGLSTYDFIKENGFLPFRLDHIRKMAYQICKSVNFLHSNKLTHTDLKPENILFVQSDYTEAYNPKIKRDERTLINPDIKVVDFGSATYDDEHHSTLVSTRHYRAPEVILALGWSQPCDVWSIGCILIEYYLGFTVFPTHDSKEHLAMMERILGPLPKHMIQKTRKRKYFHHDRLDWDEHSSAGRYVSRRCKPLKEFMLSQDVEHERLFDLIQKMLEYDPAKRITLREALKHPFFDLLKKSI
T3 sequence (Q9HAZ1 whole entry, the tested form may be a part): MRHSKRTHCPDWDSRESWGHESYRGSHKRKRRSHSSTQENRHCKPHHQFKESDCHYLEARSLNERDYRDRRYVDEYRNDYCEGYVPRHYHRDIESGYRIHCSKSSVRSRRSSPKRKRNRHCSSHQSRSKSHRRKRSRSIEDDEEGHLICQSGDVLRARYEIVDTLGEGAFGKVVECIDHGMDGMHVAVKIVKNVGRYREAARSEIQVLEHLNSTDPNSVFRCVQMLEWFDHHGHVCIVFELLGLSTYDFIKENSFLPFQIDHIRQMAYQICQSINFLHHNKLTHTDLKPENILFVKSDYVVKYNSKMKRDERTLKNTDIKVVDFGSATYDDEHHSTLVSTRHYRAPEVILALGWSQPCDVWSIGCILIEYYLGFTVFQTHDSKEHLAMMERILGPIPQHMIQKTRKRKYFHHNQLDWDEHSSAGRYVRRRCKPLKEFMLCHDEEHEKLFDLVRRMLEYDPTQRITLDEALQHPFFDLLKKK

- IC50 (DYRK4): ≤ 300 nM
- IC50 (DYRK1A; IC50 class A to E, read-out: Potency Class DYRK1A): 5 to 10 nM
- IC50 (DYRK1A; class by IC50 on DYRK1A, from dose-response curves, read-out: Potency Class DYRK1A): 5 to 10 nM
- Selectivity Class DYRK1A vs. DYRK1B (DYRK1A; ratio of IC50 on DYRK1B over IC50 on DYRK1A): II (ratio between 2 and 10 fold)
- IC50 (DYRK1A; read-out: IC50 on DYRK1A (most potent DYRK1A inhibitors)): ≤ 10 nM
- IC50 (CLK4): ≤ 10 nM
- IC50 (DYRK2): ≤ 250 nM
- IC50 (CLK1; IC50 class A to E): > 50 nM
- IC50 (CLK1; class by IC50 on CLK1, from dose-response curves): > 50 nM
SMILES: O=C1NC(NC23CC4CC(CC2C4)C3)=N/C1=C\c1ccc2nccnc2c1 [Compound 16, (4Z)-2-(3-noradamantylamino)-4-(quinoxalin-6-ylmethylene)-1H-imidazol-5-one]
- Selectivity Class DYRK1A vs. CLK1 (DYRK1A; ratio of IC50 on CLK1 over IC50 on DYRK1A): I (ratio of IC50 on CLK1 or DYRK1B over IC50 on DYRK1A ≥10 fold (most DYRK1A-selective compounds))

From US20250340538A1, “IMIDAZOLONE DERIVATIVES AS INHIBITORS OF PROTEIN KINASES IN PARTICULAR DYRK1A, CLK1 AND/OR CLK4” (PERHA PHARMACEUTICALS, priority 2021, published 2025)
